In patent US6124306A, “Thioalkyl alpha substituted pyrimidine compounds” (Pharmacia & Upjohn Company, priority 1998, dated 2000):

Experiments:
[1] = system: MF-delavirdine (P236L); assay: Antiviral activity in MT4 cells, HIV-1 p24 core antigen quantitation; type: cell-based; conditions: Human immunodeficiency virus 1, MT4, 96 h, read-out: MF-delavirdine (P236L) IC90 (μM)
Procedure: (§1) Assessment of the antiviral activities of the Compounds 1 and 290 versus the panel of viruses used in these studies was carried out in MT4 cells. Cells were batch infected with the appropriate virus stock at a multiplicity of infection of 0.001-0.005 TCID50 per cell for 2 hours at 37° C. The cells were washed, resuspended in RPMI/FBS and plated in 24 well dishes at a final concentration of 1.5×10^5 cells/ml to which were added 2× drug treatments prepared in RPMI/FBS. All treatment concentrations were tested in duplicate. The final DMSO concentration for all treatments or vehicle control cultures was 0.1%. At four days post-infection culture fluid samples were collected for HIV-1 p24 core antigen quantitation to determine antiviral effects. Linear regression analysis was used to calculate the drug concentration necessary to inhibit 90% (inhibitory concentration 90, IC90) of non-drug treated p24 antigen production.

[2] = system: IIIB-WT; assay: as above; type: cell-based; conditions: Human immunodeficiency virus 1, IIIB, 96 h, infection 0.001-0.005 TCID50 per cell, p24 antigen at four days post-infection, concentration inhibiting 90% of p24 production
Procedure: as §1

Compound	IC90 [1]	IC90 [2]
CSc1cc(N)nc(S[C@@H](C)c2cc3ccoc3cn2)n1 [Compound #1]	0.02 µM	0.008 µM
CSc1cc(N)nc(S[C@@H](C)c2cc3c(C)coc3cn2)n1 [Compound #290, (S)-(-)-4-Amino-6-methylthio-2-(1-(3-methylfuro[2,3-c]pyridine-5-yl)ethyl)thio-pyrimidine]	0.02 µM	0.004 µM
